Targets include Adenosine receptor A2a (Homo sapiens, UniProt P29274); Melanocortin receptor 4 (Homo sapiens, UniProt P32245); Vasopressin V2 receptor (Homo sapiens, UniProt P30518); Motilin receptor (Homo sapiens, UniProt O43193).
Assay [1] concerns the target T1, Alpha-1A adrenergic receptor (Homo sapiens, UniProt P35348).
T1 sequence (P35348 whole entry): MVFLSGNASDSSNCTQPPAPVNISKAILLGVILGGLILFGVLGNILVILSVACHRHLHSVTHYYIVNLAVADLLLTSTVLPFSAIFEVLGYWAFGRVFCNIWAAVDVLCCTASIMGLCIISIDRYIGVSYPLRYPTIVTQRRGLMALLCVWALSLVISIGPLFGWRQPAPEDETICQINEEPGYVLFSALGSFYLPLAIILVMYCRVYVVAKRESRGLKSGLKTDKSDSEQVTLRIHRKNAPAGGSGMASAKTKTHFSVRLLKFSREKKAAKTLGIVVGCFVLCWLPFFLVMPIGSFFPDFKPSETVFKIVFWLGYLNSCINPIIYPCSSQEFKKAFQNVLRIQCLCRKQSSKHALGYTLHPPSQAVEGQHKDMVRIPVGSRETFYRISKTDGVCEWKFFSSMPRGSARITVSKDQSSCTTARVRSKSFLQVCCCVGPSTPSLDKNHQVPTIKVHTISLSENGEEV
It counts as functional, cell-based.

Assay [2] addresses T2, Neuropeptide Y receptor type 1 (Homo sapiens, UniProt P25929).
T2 sequence (P25929 whole entry): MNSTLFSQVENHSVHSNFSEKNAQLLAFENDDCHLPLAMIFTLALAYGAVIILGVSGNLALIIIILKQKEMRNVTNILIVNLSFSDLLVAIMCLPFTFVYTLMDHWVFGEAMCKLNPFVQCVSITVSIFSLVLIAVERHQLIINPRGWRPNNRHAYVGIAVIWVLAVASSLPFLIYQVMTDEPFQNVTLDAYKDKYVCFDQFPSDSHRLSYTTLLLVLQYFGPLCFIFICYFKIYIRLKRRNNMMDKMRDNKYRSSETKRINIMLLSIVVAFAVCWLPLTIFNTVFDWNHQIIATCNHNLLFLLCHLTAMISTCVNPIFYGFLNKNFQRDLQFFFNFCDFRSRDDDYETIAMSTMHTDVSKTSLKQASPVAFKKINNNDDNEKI

Assay [3] concerns the target T3, 5-hydroxytryptamine receptor 1A (Homo sapiens, UniProt P08908).
T3 sequence (P08908 whole entry): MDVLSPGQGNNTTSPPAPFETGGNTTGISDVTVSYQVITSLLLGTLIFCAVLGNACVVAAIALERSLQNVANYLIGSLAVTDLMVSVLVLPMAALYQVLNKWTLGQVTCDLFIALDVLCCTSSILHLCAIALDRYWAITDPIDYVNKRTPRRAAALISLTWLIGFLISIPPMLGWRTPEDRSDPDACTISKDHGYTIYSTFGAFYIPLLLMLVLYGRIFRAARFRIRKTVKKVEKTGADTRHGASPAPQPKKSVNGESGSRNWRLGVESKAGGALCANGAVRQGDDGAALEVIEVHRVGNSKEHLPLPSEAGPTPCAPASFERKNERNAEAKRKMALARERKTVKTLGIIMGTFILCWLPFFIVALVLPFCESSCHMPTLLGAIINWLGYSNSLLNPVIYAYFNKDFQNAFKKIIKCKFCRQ
It counts as functional, cell-based.

Assay [4] concerns the target Gamma-aminobutyric acid receptor subunit alpha-1 (Rattus norvegicus, UniProt P62813).
Assay [5] has as its target T1, Alpha-1A adrenergic receptor.
Assay [6] concerns the target Voltage-gated inwardly rectifying potassium channel KCNH2 (Homo sapiens, UniProt Q12809). It counts as functional. The note with it: read-out: AC50.
Assay [7] has as its target Kappa-type opioid receptor (Homo sapiens, UniProt P41145).
Assay [8] has as its target Glutamate receptor ionotropic, NMDA 1 (Rattus norvegicus, UniProt P35439).
Assay [9] concerns the target T4, Alpha-2A adrenergic receptor (Homo sapiens, UniProt P08913).
T4 sequence (P08913 whole entry): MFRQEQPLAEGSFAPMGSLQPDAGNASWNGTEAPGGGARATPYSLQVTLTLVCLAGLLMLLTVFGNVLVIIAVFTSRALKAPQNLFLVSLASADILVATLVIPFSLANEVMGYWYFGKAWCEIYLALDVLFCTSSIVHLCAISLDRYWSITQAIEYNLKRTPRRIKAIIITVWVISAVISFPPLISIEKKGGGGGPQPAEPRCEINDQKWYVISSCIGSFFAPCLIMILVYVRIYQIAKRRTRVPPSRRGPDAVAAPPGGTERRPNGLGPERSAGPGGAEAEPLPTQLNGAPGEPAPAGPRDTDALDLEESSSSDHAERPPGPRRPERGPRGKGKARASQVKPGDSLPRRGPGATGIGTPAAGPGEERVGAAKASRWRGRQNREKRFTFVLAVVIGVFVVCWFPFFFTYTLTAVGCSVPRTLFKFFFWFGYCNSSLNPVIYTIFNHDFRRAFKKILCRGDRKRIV
It counts as functional, cell-based.

Assay [10] has as its target T5, Equilibrative nucleoside transporter 1 (Homo sapiens, UniProt Q99808).
T5 sequence (Q99808 whole entry): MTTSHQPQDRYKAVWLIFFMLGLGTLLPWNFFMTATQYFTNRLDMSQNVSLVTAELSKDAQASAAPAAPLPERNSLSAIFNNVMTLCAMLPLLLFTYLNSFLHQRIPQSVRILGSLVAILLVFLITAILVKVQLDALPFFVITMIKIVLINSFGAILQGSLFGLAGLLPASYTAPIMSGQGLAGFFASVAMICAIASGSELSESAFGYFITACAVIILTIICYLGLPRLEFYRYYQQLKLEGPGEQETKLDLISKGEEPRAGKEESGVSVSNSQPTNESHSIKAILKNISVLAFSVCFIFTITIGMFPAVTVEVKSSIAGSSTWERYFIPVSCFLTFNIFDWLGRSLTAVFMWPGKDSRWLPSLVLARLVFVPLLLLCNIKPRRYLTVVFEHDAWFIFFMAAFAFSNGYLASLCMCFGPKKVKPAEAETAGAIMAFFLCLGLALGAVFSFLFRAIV

The target of assay [11] is Beta-1 adrenergic receptor (Homo sapiens, UniProt P08588). It counts as functional.

Where only a bound is given, the exact number is not on record here.
Also: assay procedure not described here.

Sequence of Melanocortin receptor 4 (P32245 whole entry): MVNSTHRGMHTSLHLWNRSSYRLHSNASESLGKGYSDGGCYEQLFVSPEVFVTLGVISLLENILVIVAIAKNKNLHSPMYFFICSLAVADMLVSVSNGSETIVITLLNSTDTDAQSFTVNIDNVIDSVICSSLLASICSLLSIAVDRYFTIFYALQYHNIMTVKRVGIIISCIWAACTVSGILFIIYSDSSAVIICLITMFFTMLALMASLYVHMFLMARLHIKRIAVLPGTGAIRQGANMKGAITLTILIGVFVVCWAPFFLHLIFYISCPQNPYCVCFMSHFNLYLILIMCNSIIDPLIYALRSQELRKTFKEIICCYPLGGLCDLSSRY
Sequence of Voltage-gated inwardly rectifying potassium channel KCNH2 (Q12809 whole entry): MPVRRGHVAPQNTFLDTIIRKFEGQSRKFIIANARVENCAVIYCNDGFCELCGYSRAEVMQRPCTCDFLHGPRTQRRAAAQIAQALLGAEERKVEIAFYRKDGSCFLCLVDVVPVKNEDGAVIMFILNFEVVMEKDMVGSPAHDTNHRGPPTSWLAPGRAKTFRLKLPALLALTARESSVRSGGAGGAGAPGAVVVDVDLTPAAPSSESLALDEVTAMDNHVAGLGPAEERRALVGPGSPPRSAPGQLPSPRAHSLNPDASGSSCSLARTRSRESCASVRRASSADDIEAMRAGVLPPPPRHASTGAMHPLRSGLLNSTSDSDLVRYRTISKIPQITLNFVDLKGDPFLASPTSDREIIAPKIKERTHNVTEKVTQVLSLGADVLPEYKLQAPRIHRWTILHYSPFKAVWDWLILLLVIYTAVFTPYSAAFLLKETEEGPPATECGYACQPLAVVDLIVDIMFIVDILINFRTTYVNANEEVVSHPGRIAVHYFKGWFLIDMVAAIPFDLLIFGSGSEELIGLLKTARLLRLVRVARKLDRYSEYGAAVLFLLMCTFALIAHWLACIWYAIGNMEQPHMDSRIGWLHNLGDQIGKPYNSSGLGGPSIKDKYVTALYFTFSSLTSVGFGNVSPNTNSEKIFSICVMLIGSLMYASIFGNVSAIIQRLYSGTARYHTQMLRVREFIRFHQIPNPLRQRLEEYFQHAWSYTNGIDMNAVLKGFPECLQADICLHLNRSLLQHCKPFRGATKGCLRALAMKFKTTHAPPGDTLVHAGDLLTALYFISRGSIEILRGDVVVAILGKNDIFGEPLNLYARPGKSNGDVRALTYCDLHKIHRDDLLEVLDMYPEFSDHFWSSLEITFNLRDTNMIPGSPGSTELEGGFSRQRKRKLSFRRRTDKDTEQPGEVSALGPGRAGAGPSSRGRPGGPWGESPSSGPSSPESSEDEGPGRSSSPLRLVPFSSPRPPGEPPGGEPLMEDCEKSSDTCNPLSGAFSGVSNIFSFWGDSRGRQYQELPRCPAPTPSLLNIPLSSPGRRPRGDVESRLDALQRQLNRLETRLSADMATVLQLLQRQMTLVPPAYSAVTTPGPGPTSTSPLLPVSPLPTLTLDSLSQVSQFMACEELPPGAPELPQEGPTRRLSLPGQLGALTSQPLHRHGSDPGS
Sequence of Motilin receptor (O43193 whole entry): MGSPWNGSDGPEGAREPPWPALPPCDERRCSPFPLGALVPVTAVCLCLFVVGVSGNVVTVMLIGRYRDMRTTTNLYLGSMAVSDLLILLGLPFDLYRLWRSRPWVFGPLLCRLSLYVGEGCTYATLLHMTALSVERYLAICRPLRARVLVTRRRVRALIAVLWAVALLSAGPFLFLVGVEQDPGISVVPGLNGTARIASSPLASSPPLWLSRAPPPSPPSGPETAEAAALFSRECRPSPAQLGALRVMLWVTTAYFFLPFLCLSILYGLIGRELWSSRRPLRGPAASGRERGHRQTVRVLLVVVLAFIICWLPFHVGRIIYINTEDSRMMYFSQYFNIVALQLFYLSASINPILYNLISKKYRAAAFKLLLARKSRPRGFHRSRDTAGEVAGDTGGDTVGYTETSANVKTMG
Sequence of Beta-1 adrenergic receptor (P08588 whole entry): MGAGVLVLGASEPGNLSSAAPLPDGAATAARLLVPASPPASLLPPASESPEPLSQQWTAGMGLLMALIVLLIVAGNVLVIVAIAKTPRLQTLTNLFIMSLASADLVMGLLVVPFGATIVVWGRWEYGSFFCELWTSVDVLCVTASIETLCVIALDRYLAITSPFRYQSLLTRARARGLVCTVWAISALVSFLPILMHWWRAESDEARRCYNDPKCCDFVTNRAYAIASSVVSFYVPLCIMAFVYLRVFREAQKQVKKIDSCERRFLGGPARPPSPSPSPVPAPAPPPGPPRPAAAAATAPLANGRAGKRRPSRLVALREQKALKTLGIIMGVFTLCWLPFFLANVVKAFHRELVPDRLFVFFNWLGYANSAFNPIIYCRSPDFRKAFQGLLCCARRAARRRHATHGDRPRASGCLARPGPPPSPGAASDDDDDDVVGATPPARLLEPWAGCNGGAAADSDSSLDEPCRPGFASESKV
Sequence of Vasopressin V2 receptor (P30518 whole entry): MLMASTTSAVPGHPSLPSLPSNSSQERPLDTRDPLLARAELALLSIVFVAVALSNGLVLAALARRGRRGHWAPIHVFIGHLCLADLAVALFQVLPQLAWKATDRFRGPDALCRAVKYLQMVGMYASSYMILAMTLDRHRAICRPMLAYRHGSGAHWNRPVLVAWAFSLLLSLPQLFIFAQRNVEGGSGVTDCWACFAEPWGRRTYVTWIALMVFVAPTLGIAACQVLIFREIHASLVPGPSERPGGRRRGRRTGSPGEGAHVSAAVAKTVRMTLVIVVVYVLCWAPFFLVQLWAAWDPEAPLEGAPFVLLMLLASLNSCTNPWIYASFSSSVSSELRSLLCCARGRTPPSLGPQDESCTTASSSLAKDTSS
Sequence of Adenosine receptor A2a (P29274 whole entry): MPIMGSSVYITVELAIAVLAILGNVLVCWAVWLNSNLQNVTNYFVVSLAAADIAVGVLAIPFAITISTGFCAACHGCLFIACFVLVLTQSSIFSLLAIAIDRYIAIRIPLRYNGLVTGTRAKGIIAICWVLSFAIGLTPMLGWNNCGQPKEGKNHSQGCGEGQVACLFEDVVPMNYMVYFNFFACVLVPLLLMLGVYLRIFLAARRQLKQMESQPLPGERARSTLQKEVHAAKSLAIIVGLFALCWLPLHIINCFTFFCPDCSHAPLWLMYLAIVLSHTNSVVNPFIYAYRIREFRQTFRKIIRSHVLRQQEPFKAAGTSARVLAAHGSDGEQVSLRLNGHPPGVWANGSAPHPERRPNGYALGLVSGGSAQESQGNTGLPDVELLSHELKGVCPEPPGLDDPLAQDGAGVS
Sequence of Kappa-type opioid receptor (P41145 whole entry): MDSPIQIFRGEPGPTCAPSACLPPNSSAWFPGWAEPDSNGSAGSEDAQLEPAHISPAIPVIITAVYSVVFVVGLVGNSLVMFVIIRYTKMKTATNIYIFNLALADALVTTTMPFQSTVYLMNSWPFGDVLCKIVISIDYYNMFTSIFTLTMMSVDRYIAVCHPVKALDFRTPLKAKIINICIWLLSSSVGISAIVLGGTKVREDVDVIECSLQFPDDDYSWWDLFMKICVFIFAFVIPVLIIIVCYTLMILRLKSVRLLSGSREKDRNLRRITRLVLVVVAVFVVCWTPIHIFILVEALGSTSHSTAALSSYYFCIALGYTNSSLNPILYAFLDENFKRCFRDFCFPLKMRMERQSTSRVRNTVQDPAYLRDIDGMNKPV
Sequence of Gamma-aminobutyric acid receptor subunit alpha-1 (P62813 whole entry): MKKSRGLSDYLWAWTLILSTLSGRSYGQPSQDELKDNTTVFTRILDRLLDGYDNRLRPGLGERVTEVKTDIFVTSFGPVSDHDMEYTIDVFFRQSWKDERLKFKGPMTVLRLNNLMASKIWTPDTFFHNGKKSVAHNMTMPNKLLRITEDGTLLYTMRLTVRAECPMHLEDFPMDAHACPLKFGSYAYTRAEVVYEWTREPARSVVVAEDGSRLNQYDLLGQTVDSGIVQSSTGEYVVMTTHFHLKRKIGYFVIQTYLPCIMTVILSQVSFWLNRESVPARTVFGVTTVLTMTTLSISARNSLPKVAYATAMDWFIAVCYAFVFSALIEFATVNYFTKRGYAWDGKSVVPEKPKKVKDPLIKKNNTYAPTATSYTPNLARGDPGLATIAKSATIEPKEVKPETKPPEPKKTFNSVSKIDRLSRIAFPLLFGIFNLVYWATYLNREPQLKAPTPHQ

As to `OCCN(CCO)c1nc(N2CCCCC2)c2nc(N(CCO)CCO)nc(N3CCCCC3)c2n1` [DIPYRIDAMOLE], the concentration at half-maximal activity (AC50) is 3.5 µM in assay [1]; > 30 µM in assay [2]; > 30 µM at Adenosine receptor A2a; > 30 µM at Melanocortin receptor 4; > 30 µM in assay [3]; > 30 µM in assay [4]. Besides, the concentration at half-maximal activity (AC50) in assay [5] was > 30 µM; in assay [6], > 30 µM; in assay [7], > 30 µM; at Vasopressin V2 receptor, > 30 µM; in assay [8], > 30 µM; in [9], > 10 µM.
`CCC1(C)CC(=O)NC1=O` (configuration not stated) [ETHOSUXIMIDE]: the AC50 (in [2]; in [10]; at Adenosine receptor A2a; on Melanocortin receptor 4; in [3]; in assay [4]) was > 10 µM throughout. For the same molecule, the AC50 in assay [5] was > 30 µM; in assay [11], > 10 µM; in assay [6] it was > 30 µM; in assay [7], > 10 µM; at Vasopressin V2 receptor, > 10 µM; in [8], > 10 µM. Also, the AC50 (at Motilin receptor; in [9]) was > 10 µM each time.
Take `COc1ccc2c3c1O[C@H]1C(=O)CC[C@H]4[C@@H](C2)N(C)CC[C@]314` [HYDROCODONE]: the half-maximal activity concentration (AC50) in assay [1] was > 30 µM; in assay [2], > 30 µM; in assay [10] it was > 30 µM; on Adenosine receptor A2a it was > 30 µM; on Melanocortin receptor 4, > 30 µM; in [3], > 10 µM. Further, the AC50 in [4] was > 10 µM; in assay [5], > 10 µM; in [11] it was > 10 µM; in [6], > 30 µM; at Vasopressin V2 receptor, > 30 µM; in [8] it was > 10 µM. The concentration at half-maximal activity (AC50) (on Motilin receptor; in assay [9]) was > 10 µM each time.
Turning to `CCC1(CC)C(=O)NC(=O)N(C)C1=O` [METHARBITAL], the AC50 (in assay [2]; in assay [10]; on Adenosine receptor A2a; on Melanocortin receptor 4; in [3]; in [4]) was > 10 µM each time. Besides, the AC50 in assay [5] is > 10 µM; in [11], > 10 µM; in assay [6], > 30 µM; in assay [7], > 10 µM; on Vasopressin V2 receptor, > 10 µM; in assay [8], > 10 µM. In addition, the concentration at half-maximal activity (AC50) (on Motilin receptor; in assay [9]) was > 10 µM throughout.
As for `Nc1cc(N2CCCCC2)nc(N)[n+]1[O-]` [MINOXIDIL], the AC50 is > 30 µM in [1]; > 30 µM on Adenosine receptor A2a; > 30 µM on Melanocortin receptor 4; > 30 µM in [3]; > 10 µM in assay [4]; > 10 µM in [5]. The concentration at half-maximal activity (AC50) in assay [11] was > 30 µM; in assay [7], > 10 µM; on Vasopressin V2 receptor, > 30 µM; in [8] it was > 10 µM; on Motilin receptor, > 10 µM; in assay [9] it was > 10 µM.
On to `CCOC(=O)O[C@]1(C(=O)COC(=O)CC)CC[C@H]2[C@@H]3CCC4=CC(=O)C=C[C@]4(C)[C@H]3[C@@H](O)C[C@@]21C` [PREDNICARBATE], for which the AC50 (in assay [2]; in assay [10]; at Adenosine receptor A2a; on Melanocortin receptor 4; in assay [3]; in assay [4]) was > 10 µM each time. Moreover, the AC50 was > 10 µM in assay [5]; > 10 µM in assay [11]; > 30 µM in [6]; > 10 µM in assay [7]; > 10 µM at Vasopressin V2 receptor; > 10 µM in assay [8]. Moreover, the AC50 (on Motilin receptor; in assay [9]) was > 10 µM each time.
`CCC(=O)[C@@]1(C)[C@H](C)C[C@H]2[C@@H]3CCC4=CC(=O)C=C[C@]4(C)[C@H]3[C@@H](O)C[C@@]21C` [RIMEXOLONE]: the AC50 (in assay [2]; in assay [10]; on Adenosine receptor A2a; on Melanocortin receptor 4; in assay [3]; in [4]) was > 10 µM each time. Also, the concentration at half-maximal activity (AC50) in assay [5] was > 10 µM; in assay [11] it was > 10 µM; in assay [6] it was > 30 µM; in [7], > 10 µM; on Vasopressin V2 receptor, > 10 µM; in assay [8], > 10 µM. Besides, the concentration at half-maximal activity (AC50) (at Motilin receptor; in assay [9]) was > 10 µM in each case.
Consider `Nc1ccc(S(=O)(=O)Nc2ncccn2)cc1` [SULFADIAZINE], for which the AC50 (in assay [2]; in [10]; on Adenosine receptor A2a; on Melanocortin receptor 4; in [3]; in [4]) was > 10 µM in each case. Besides, the AC50 in assay [5] was > 10 µM; in [11], > 10 µM; in [6], > 30 µM; in assay [7], > 10 µM; on Vasopressin V2 receptor, > 10 µM; in assay [8] it was > 10 µM. Further, the AC50 (at Motilin receptor; in assay [9]) was > 10 µM throughout.
Take `Cc1cccc(Nc2ccncc2S(=O)(=O)NC(=O)NC(C)C)c1` [TORSEMIDE]: the half-maximal activity concentration (AC50) was > 30 µM in assay [2]; > 10 µM in [10]; > 30 µM at Adenosine receptor A2a; > 30 µM at Melanocortin receptor 4; > 10 µM in assay [3]; > 10 µM in [4]. For the same molecule, the AC50 in assay [5] was > 10 µM; in assay [11], > 10 µM; in [6], > 30 µM; in assay [7] it was > 10 µM; on Vasopressin V2 receptor, > 30 µM; in assay [8], > 10 µM. Further, the values for the AC50 (on Motilin receptor; in assay [9]) were > 30 µM and > 10 µM, respectively.

These data come from ChEMBL document CHEMBL5291721, “A preclinical secondary pharmacology resource illuminates target-adverse drug reaction associations of marketed drugs” (Nat Commun, 2023).
